Values quoted from earlier work in patent US20120156286A1, “COMPOSITIONS AND METHODS FOR INCREASED DELIVERY OF COENZYME Q10” (IMAGENETIX, INC., priority 2010, published 2012).

Settings: in vivo

Intestinal absorption: less than 10%
Compound: COC1=C(OC)C(=O)C(C/C=C(\C)CC/C=C(\C)CC/C=C(\C)CC/C=C(\C)CC/C=C(\C)CC/C=C(\C)CC/C=C(\C)CC/C=C(\C)CC/C=C(\C)CCC=C(C)C)=C(C)C1=O [CoQ10, Coenzyme Q10]
